The values that follow come from patent US20250100995A1, “CEREBLON BINDING COMPOUNDS, COMPOSITIONS THEREOF, AND METHODS OF TREATMENT THEREWITH” (CELGENE CORPORATION, priority 2021, published 2025).

Counter-ions that a name gives are not always drawn.

The term DC50 denotes the concentration giving 50% degradation. Low readings indicate a more potent degrader, high ones a less potent degrader.

The test addresses T1, AR (Homo sapiens, UniProt P10275).
T1 construct: endogenous in cells; host or cells: VCaP cells
T1 sequence (P10275 1-920): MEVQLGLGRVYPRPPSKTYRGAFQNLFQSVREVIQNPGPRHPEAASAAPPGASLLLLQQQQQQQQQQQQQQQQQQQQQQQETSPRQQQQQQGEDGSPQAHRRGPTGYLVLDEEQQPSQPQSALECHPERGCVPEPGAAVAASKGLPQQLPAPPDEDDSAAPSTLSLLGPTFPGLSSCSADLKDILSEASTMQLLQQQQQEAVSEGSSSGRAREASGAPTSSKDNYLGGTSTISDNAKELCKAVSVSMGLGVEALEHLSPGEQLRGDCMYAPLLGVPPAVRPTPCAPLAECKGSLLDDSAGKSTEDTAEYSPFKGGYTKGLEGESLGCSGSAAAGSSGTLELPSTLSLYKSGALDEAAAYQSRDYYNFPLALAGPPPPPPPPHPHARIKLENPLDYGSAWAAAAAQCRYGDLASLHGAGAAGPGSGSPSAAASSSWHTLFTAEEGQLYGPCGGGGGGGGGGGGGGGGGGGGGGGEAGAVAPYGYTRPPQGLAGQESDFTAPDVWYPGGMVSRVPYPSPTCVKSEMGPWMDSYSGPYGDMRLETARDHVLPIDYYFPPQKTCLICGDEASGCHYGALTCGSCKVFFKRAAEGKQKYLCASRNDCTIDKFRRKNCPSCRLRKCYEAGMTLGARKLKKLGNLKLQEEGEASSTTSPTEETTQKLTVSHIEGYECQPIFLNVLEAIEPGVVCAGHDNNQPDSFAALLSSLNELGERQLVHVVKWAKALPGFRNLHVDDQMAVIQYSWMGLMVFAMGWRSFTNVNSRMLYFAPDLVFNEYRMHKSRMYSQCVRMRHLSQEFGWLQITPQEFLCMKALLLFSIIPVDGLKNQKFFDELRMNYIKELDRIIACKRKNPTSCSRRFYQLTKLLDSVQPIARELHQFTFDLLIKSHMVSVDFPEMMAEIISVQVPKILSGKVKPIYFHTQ
Nature of the test: VCAP AR Degradation Assay. The note with it: VCaP cells, 24 h, AR ELISA; for DC50: concentration of compound when AR level = 50% of DMSO control; for Y: lowest measured AR level normalized to DMSO control (AR degradation efficiency). The format is cell-based. As for the experimental part:
VCAP AR Degradation Assay. Test compounds were pre-dispensed into a Corning CellBind 96-well clear bottom plate (Cat #3300) using an acoustic dispenser to make a 10-point concentration series at 1:3 dilution for each compound. The final top concentration of each compound was 5 μM. DMSO at a final concentration of 0.1% was used as a control. VCaP cells cultured in DMEM with 8% fetal bovine serum (FBS) were seeded at 50K cells per well in a 200 μL volume into the compound plate and incubated at 37° C. in a CO2 incubator for 24 h. The medium was carefully removed from the cells and the plate was placed on ice. One hundred μL of ice-cold 1× cell lysis buffer from Cell Signaling Technologies (Cat #9803) was added to each well of the cells and the plate was incubated at 4° C. on a shaker for 1 h. Fifteen μL of cell lysate was used for AR ELISA detection using a PathScan Total Sandwich AR ELISA kit (Cell Signaling Technology, Cat #12580). AR levels in compound-treated wells were normalized to that of DMSO control and expressed as percent of control (PoC) (y). A Four Parameter Logistic Model (Sigmoidal Dose-Response Model) was used to determine the compound's DC50, and EC50, using the following equation: […]
The lowest measured AR level normalized to DMSO control in response to compound treatment, termed Y value, was used to characterize the compound-mediated AR degradation efficiency.
On the technique in general: ELISA stands for enzyme-linked immunosorbent assay.

`C[C@@H]1CN(CCO[C@H]2CC[C@H](N3C(=S)N(c4ccc(C#N)c(C(F)(F)F)c4)C(=O)C3(C)C)CC2)C[C@H](C)N1CC(=O)Nc1ccc(N2CCC(=O)NC2=O)cn1` [Cmpd 3, 2-((2R,6S)-4-(2-((trans-4-(3-(4-Cyano-3-(trifluoromethyl)phenyl)-5,5-dimethyl-4-oxo-2-thioxoimidazolidin-1-yl)cyclohexyl)oxy)ethyl)-2,6-dimethylpiperazin-1-yl)-N-(5-(2,4-dioxotetrahydropyrimidin-1(2H)-yl)pyridin-2-yl)acetamide hydrochloride]: the DC50 is above 200 nM and the Y entry is listed as “*** (40%<Y<80%)”.
On to `C[C@@H]1C[C@H](OCC[C@H]2CC[C@H](N3C(=S)N(c4ccc(C#N)c(C(F)(F)F)c4)C(=O)C3(C)C)CC2)C[C@H](C)N1CC(=O)Nc1cc(C2CCC(=O)NC2=O)ccn1` (stereo partly drawn) [Cmpd 27, 2-((2R,4r,6S)-4-(2-((trans)-4-(3-(4-Cyano-3-(trifluoromethyl)phenyl)-5,5-dimethyl-4-oxo-2-thioxoimidazolidin-1-yl)cyclohexyl)ethoxy)-2,6-dimethylpiperidin-1-yl)-N-(4-(2,6-dioxopiperidin-3-yl)pyridin-2-yl)acetamide], for which the DC50 lay in the range of 5 to 50 nM and the Y result is recorded as “** (20%<Y≤40%)”.
Regarding `CC1(C)C(=O)N(c2ccc(C#N)c(C(F)(F)F)c2)C(=S)N1[C@H]1CC[C@H](OCCCN2CCN(CC(=O)Nc3cc(C4CCC(=O)NC4=O)ccn3)[C@@H](C(F)(F)F)C2)CC1` (stereo partly drawn) [Cmpd 24, 2-((R)-4-(3-(((trans)-4-(3-(4-Cyano-3-(trifluoromethyl)phenyl)-5,5-dimethyl-4-oxo-2-thioxoimidazolidin-1-yl)cyclohexyl)oxy)propyl)-2-(trifluoromethyl)piperazin-1-yl)-N-(4-(2,6-dioxopiperidin-3-yl)pyridin-2-yl)acetamide], the half-maximal degradation concentration (DC50) is at most 5 nM and the Y entry is “* (0<Y≤20%)”.
